Measured values taken from publication PMC12040169 (PLOS Biology, 2025).

Tests used:
[1] = test system: T1, C. trachomatis L2/434/Bu expressing GFP (CTL2-GFP); test: microbe, parasite or virus in culture; design: C. trachomatis total inclusion area by high-content imaging, normalised to DMSO; details: Chlamydia trachomatis, HeLa, 28.5 h; total inclusion area; read-out: % of control remaining
T1 construct: L2/434/Bu GFP intracellular growth in HeLa cells
Procedure, shortened: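 First, bulk GFP and resorufin signals were measured in compound-treated infected cultures. Cells were next fixed and stained with Hoechst. Finally, high-content imaging quantified chlamydial inclusions (area, number) and host nuclei, and MICs were calculated.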

[2] = test system: T2, CTL2-GFP (C. trachomatis L2/434/Bu, GFP-expressing); test: microbe, parasite or virus in culture; design: Intracellular C. trachomatis growth in HeLa cells, bulk GFP fluorescence relative to DMSO; details: Chlamydia trachomatis, HeLa, 28.5 h; bulk GFP, mean of 2; read-out: % of control remaining
T2 construct: L2/434/Bu, GFP-expressing
Method: MICs were calculated as described above.

in vitro [3] = test: in vitro; design: Viability of infected HeLa host cells, resazurin conversion, bulk resorufin fluorescence relative to DMSO; details: human, hela cells; bulk resorufin, mean of 2
in vitro [4] = details: human, hela cells, % viability

| Structure (SMILES) | activity at 1 µM [1] | activity at 5 µM [1] | activity at 10 µM [1] | activity at 1 µM [2] | activity at 5 µM [2] | activity at 10 µM [2] | viability at 28.5 h, 1 µM (in vitro [3]) | viability at 28.5 h, 5 µM (in vitro [3]) | viability at 28.5 h, 10 µM (in vitro [3]) | viability at 28.5 h, 10 µM (in vitro [4]) |
| --- | --- | --- | --- | --- | --- | --- | --- | --- | --- | --- |
| CCc1nnc(NS(=O)(=O)c2ccc(N/C=C\C(=O)c3ccc4ccccc4c3)cc2)s1 [CBK263385] | 110% | 33.1% | 19.1% | 109% | 23.6% | 24% | 93.6% | 95.1% | 88.7% | 91.4% |
| CCC(Sc1nnc2c(n1)[nH]c1ccccc12)C(=O)N1c2ccccc2Sc2ccccc21 (stereo not shown) [CBK263929] | 32.8% | 30.8% | 13.4% | 60.4% | 52.9% | 44.5% | 94.1% | 89.8% | 88.6% | 95.1% |
| CC(C)(CN)CN(Cc1ccc(-c2ccccc2)cc1)C(=O)Nc1ccccc1C(C)(C)C [CBK002476C] | 114% | 50.1% | 2.01% | 98.7% | 75.3% | 16.4% | 118% | 114% | 63.6% | 94.2% |
| OC(CN1CCN(Cc2ccccc2)CC1)Cn1c2ccc(Br)cc2c2cc(Br)ccc21 (stereo not shown) [CBK262203] | 102% | 94.9% | 35% | 104% | 98.6% | 88.8% | 94.6% | 90.4% | 90% | 94.4% |
| CC(Nc1cccc2ccccc12)C(=O)N/N=C/c1ccc(O)cc1O (stereo not shown) [CBK262681] | 91.4% | 46.9% | 24.5% | 103% | 62.9% | 42.4% | 89.9% | 86.9% | 82.2% | 75.9% |
| Cc1ccc(C(=O)NC2CCCC2)cc1[N+](=O)[O-] [CBK001993] | 116% | 89.8% | 50.4% | 123% | 123% | 110% | 112% | 110% | 104% | 102% |
| O=C(Nc1cc(Cl)nc(Cl)c1)N(Cc1ccc(-c2ccccc2)cc1)CC1CCNCC1 [CBK049794] | 62.1% | 41.7% | 25.8% | 115% | 90.8% | 90.8% | 95.2% | 100% | 97.9% | 82.6% |
| O=C(CSc1nnc(-c2cccnc2)o1)c1ccccc1 [CBK068446] | 67.4% | 24% | 6.22% | 74.8% | 13.2% | 1.98% | 112% | 111% | 114% | 139% |
| CC1=NN(c2ccc(C)cc2)C(=O)/C1=C\Nc1ccc(S(=O)(=O)Nc2nc(C)cc(C)n2)cc1 [CBK262398] | 91.7% | 40.5% | 18% | 83.6% | 16.3% | 2.4% | 94.6% | 99.4% | 118% | 92.8% |
| O=C(N/N=C/c1c(O)ccc2ccccc12)c1ccc(CO)nc1 [CBK261375] | 112% | 72.5% | 32.1% | 130% | 69% | 32.3% | 89.8% | 84.2% | 76.9% | 84.7% |
| c1ccc2c3c([nH]c2c1)C1(CCN(CCC2CCCCC2)C1)OCC3 (stereo not shown) [CBK061789] | 51.4% | 5.37% | 3.22% | 168% | 72.4% | 23.7% | 92.9% | 90% | 84.9% | 83.3% |
| COc1cc(N)c2ncccc2c1 [CBK011972C] | 85% | 10.9% | 1.09% | 90.6% | 23.4% | 7.94% | 101% | 81.1% | 80% | 77.7% |
| COc1cc(CN2CCNCC2)c2ccn(S(=O)(=O)c3cccc(Cl)c3C)c2c1 [CBK144484T] | 90.6% | 59.5% | 23.3% | 113% | 109% | 57.5% | 104% | 95.7% | 102% | 87.1% |
